Several values for one entry are separate records, joined by “and”; a condition that tells them apart may be missing. Identical values can stand only once. Like-named read-outs stand apart in the source and are kept apart here.
Columns and labels:
Assay type in all cases: in vivo
corn = conditions: post-emergence
Experimental: (§1) The herbicidal activity of the active substances or active substance mixtures was scored visually with the aid of the treated parcels in comparison with untreated control parcels. Damage to and development of all above-ground parts of plants was recorded here. Scoring was carried out on a percentage scale (100% action=all plants died; 50% action=50% of the plants and green plant parts died; 0% action=no discernible action=like control parcels. The mean of the scoring values of 4 parcels in each case was taken.
(§2) Crop plants were raised outdoors under natural outdoor conditions on plots in which seeds or rhizome sections of typical harmful plants had been sown or the natural weed infestation was used. The treatment with the compositions according to the invention was carried out after the emergence of the harmful plants and the crop plants, as a rule in the 2 to 4-leaf stage; in some cases (as indicated) the application of individual active substances or active substance combinations was carried out pre-emergence (cf. Example 1) or as a sequence treatment, in some cases pre-emergence and/or post-emergence.
(§3) After the application, e.g. 2, 4, 6 and 8 weeks after application, the action of the preparations was scored visually in comparison with untreated controls (cf. score in Example 1). […] The crop plants, however, were not damaged or were only insignificantly damaged as a result of the treatment with the herbicidal compositions.

[1] = system: CHEAL = Chenopodium album; assay: Herbicidal action, visual scoring; conditions: Table 9, post-emergence, scoring 3 weeks after application, g of A.S./ha by row: r6 120, r7 60, r8 30, r9 15, r10 60, r11 30, r12 15, r13 30 + 30, r14 15 + 30, r15 30 + 15, r16 2000, r17 1000, r18 500, r19 30 + 1000, r20 15 + 1000, r21 30 + 500
Experimental: as §1
(§4) Seeds or rhizome pieces of monocotyledonous and dicotyledonous weeds are placed in sandy loam soil in pots, covered with soil and grown in the greenhouse under good growth conditions (temperature, humidity, water supply). Three weeks after sowing, the test plants in the three-leaf stage are treated with the compositions according to the invention. The compositions according to the invention which are formulated as wettable powders or as emulsion concentrates are sprayed in various dosages on the green parts of the plants at an application rate of 600 to 800 l of water/ha (converted). After the test plants have remained in the greenhouse for about 3 to 4 weeks under optimal growth conditions, the effect of the products is scored visually by comparison with untreated controls. When applied post-emergence, too, the compositions according to the invention have a good herbicidal activity against a broad spectrum of economically important grass weeds and broad-leaved weeds.
as §2, §3

SOLNI = assay: Herbicidal action, visual scoring; conditions: Table 10, post-emergence, scoring 3 weeks after application, g of A.S./ha by row: r7 120, r8 60, r9 30, r10 15, r11 12, r12 6, r13 3, r14 30 + 6, r16 15 + 6, r18 30 + 3
Experimental: as §1, §4, §2, §3

Ipomoea purpurea = assay: Herbicidal action, visual scoring; conditions: Table 1, post-emergence, scoring 3 weeks after application, g of A.S./ha: 45, 60, 75, 1000, 2000, 3000, 75 + 1000
Experimental: as §1, §4, §2, §3

[2] = system: POLCO = Polygonum convolvulus; assay: Herbicidal action, visual scoring; conditions: Table 15; post-emergence; scoring 4 weeks after application; g of A.S./ha by row: r6 30, r7 15, r8 7.5, r9 900, r10 450, r12 600, r14 20, r16 30 + 450, r17 7.5 + 900, r18 30 + 600, r19 7.5 + 600, r20 15 + 20, r21 7.5 + 20
Experimental: as §1, with “taken. […]” for “taken.”
as §2, §3

Digitaria sanguinalis = assay: Herbicidal action, visual scoring; conditions: post-emergence, scoring 4 weeks after application
Experimental: as §1, §4, §2, §3

[3] = Table 9, scoring 3 weeks after application, g of A.S./ha by row: r6 120, r7 60, r8 30, r9 15, r10 60, r11 30, r12 15, r13 30 + 30, r14 15 + 30, r15 30 + 15, r16 2000, r17 1000, r18 500, r19 30 + 1000, r20 15 + 1000, r21 30 + 500

In the case of COc1cc(OC)nc(NC(=O)NS(=O)(=O)c2ncccc2C(=O)N(C)C)n1 [(B1.3.1), nicosulfuron], the Damage on corn (corn; [3]) is reported as 0%, the “Herbicidal action CHEAL” value ([1]; 15 g active substance/ha) is reported as 55% and the “Herbicidal action CHEAL” value ([1]; 30 g active substance/ha) is reported as 65%. The “Herbicidal action CHEAL” value ([1]; 60 g active substance/ha) was 90%.
With Cc1cc(Cl)ccc1OCC(=O)O [(B2.5.2), MCPA] the Damage on corn (corn; Table 16, scoring 4 weeks after application, g of A.S./ha: 60, 30, 15, 1500, 750, 375, 30 + 750, 30 + 375, 15 + 750, 60 + 375) was 6% and 0% and 10%.
CCc1cccc(C)c1N(C(=O)CCl)C(C)COC (stereo not shown) [(B1.1.2), metolachlor] was tested, and the Damage on corn (corn; [3]) was 0% and the “Herbicidal action CHEAL” value [1] was 0%.
COc1nc(NC(=O)NS(=O)(=O)c2ccccc2C(F)(F)F)nc(C(F)(F)F)n1 [(B2.4.5), tritosulfuron] showed a Damage on corn (corn; Table 7, scoring 3 weeks after application, g of A.S./ha by row: r6 15, r7 30, r8 45, r9 60, r10 2.5, r11 5, r12 15 + 2.5, r13 15 + 5) of 1%.
With CCS(=O)(=O)c1cccnc1S(=O)(=O)NC(=O)Nc1nc(OC)cc(OC)n1 [(B1.3.2), rimsulfuron] the “Herbicidal action SOLNI” value (SOLNI; 3 g active substance per ha) was 35%, the “Herbicidal action SOLNI” value (SOLNI; 6 g active substance per ha) was 45% and the “Herbicidal action SOLNI” value (SOLNI; 12 g active substance per ha) was 60%.
With CCNc1nc(Cl)nc(NC(C)C)n1 [(B1.2.1), atrazine] the Damage on corn (corn; Table 1, scoring 3 weeks after application, g of A.S./ha: 45, 60, 75, 1000, 2000, 3000, 75 + 1000) was 0%, the “Herbicidal action against Ipomoea purpurea” value (Ipomoea purpurea; 1000 g active substance per ha) was 70% and the “Herbicidal action against Ipomoea purpurea” value (Ipomoea purpurea; 2000 g active substance per ha) was 85%. The “Herbicidal action against Ipomoea purpurea” value (Ipomoea purpurea; 3000 g active substance per ha) was 90%.
For COc1cc(OC)n2nc(S(=O)(=O)Nc3c(Cl)ccc(C)c3Cl)nc2n1 [(B1.5.1), metosulam], the “Herbicidal action Polygonum convolvulus” value [2] was 55%.
For CS(=O)(=O)c1ccc(C(=O)C2C(=O)CCCC2=O)c(Cl)c1 [(B1.4.2), sulcotrione], the Damage on corn (corn; Table 11, scoring 3 weeks after application, g of A.S./ha by row: r6 120, r7 60, r8 30, r9 15, r10 2000, r11 1000, r12 500, r13 30 + 1000, r14 15 + 1000, r15 30 + 500, r16 600, r17 300, r18 150, r19 30 + 300, r20 15 + 300, r21 30 + 150) was 0%.
For O=C(O)c1nc(Cl)ccc1Cl [(B2.3.6), clopyralid], the Damage on corn (corn; Table 19, scoring 3 weeks after application, g of A.S./ha by row: r6 60, r7 30, r8 15, r9 120, r10 60, r11 30, r12 30 + 30, r13 30 + 60, r14 60 + 30) was 0% and 3%.
For CCc1cccc(CC)c1N(COC)C(=O)CCl [(B1.1.1), alachlor], the Damage on corn (corn; Table 17, scoring 4 weeks after application, g of A.S./ha by row: r6 60, r7 30, r8 15, r9 2000, r10 1000, r11 500, r12 15 + 1000, r13 30 + 500, r14 2000, r15 1000, r16 500, r17 30 + 500, r18 15 + 500, r19 15 + 1000) was 0%, the “Herbicidal action Digitaria sanguinalis” value (Digitaria sanguinalis; Table 17, g of A.S./ha by row: r6 60, r7 30, r8 15, r9 2000, r10 1000, r11 500, r12 15 + 1000, r13 30 + 500, r14 2000, r15 1000, r16 500, r17 30 + 500, r18 15 + 500, r19 15 + 1000, 500 g A.S./ha) was 40% and the “Herbicidal action Digitaria sanguinalis” value (Digitaria sanguinalis; Table 17, g of A.S./ha by row: r6 60, r7 30, r8 15, r9 2000, r10 1000, r11 500, r12 15 + 1000, r13 30 + 500, r14 2000, r15 1000, r16 500, r17 30 + 500, r18 15 + 500, r19 15 + 1000, 1000 g A.S./ha) was 50%. For the same compound, the “Herbicidal action Digitaria sanguinalis” value (Digitaria sanguinalis; Table 17, g of A.S./ha by row: r6 60, r7 30, r8 15, r9 2000, r10 1000, r11 500, r12 15 + 1000, r13 30 + 500, r14 2000, r15 1000, r16 500, r17 30 + 500, r18 15 + 500, r19 15 + 1000, 2000 g A.S./ha) was 65%.
In the case of CC(C)N(C(=O)COc1nnc(C(F)(F)F)s1)c1ccc(F)cc1 [(B1.2.7), fluthiamid], the Damage on corn (corn; Table 15, scoring 4 weeks after application, g of A.S./ha by row: r6 30, r7 15, r8 7.5, r9 900, r10 450, r12 600, r14 20, r16 30 + 450, r17 7.5 + 900, r18 30 + 600, r19 7.5 + 600, r20 15 + 20, r21 7.5 + 20) is reported as 0% and the “Herbicidal action Polygonum convolvulus” value [2] is reported as 25%.
For CCNc1nc(Cl)nc(NC(C)(C)C#N)n1 [(B1.2.3), cyanazine], the Damage on corn (corn; Table 14, scoring 4 weeks after application, g of A.S./ha by row: r6 30, r7 15, r8 7.5, r9 2200, r10 1100, r11 550, r12 7.5 + 2200, r13 7.5 + 1100) was 12% and 5% and 15%.
CS(=O)(=O)c1cc(Cl)ccc1C(=O)c1cnoc1C1CC1 [(B1.4.6), isoxachlortole] was tested, and the Damage on corn (corn; Table 18, scoring 4 weeks after application, g of A.S./ha by row: r6 45, r7 22.5, r8 12.5, r9 25, r12 12.5 + 25, r13 12.5 + 12.5) was 12%, the “Herbicidal action Digitaria sanguinalis” value (Digitaria sanguinalis; Table 18, g of A.S./ha by row: r6 45, r7 22.5, r8 12.5, r9 25, r10 12.5, r12 12.5 + 25, r13 12.5 + 12.5, 12.5 g of A.S./ha) was 30% and the “Herbicidal action Digitaria sanguinalis” value (Digitaria sanguinalis; Table 18, g of A.S./ha by row: r6 45, r7 22.5, r8 12.5, r9 25, r10 12.5, r12 12.5 + 25, r13 12.5 + 12.5, 25 g of A.S./ha) was 45%.
